# Results reported in US20060069132A1, “Azolecarboxamide herbicides” (priority 2004, published 2006).
# Where two headings read alike, the source gives them in different places.
# Experiments:
# [1] = test system: barnyardgrass; assay: Test B pre-/postemergence herbicide test; type: in vivo, Echinochloa crus-galli; conditions: for pest or weed control at 500 g/ha: 500 g ai/ha
# Procedure, shortened: (§1)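 Evaluation is visual, comparing treated with control plants on a scale where 0 means no effect and 100 means full control. Treatments were preemergence, or postemergence on seedlings 2–18 cm tall, and held 13–15 days in the greenhouse.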
# [2] = test system: Surinam grass; assay: Test B pre-/postemergence herbicide test; type: in vivo, Urochloa decumbens; conditions: for pest or weed control at 500 g/ha: 500 g ai/ha
# Procedure, shortened: (§2)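 Test chemicals in a non-phytotoxic solvent mixture with surfactant were applied preemergence to seeded species and postemergence to plants 2-18 cm tall (1- to 4-leaf stage); rice and barnyardgrass were also tested in a flooded paddy at the 2-leaf stage. Visual rating versus controls after 13-15 days in greenhouse, scale 0 (no effect) to 100 (complete control).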
# [3] = test system: cocklebur; assay: Test B pre-/postemergence herbicide test; type: in vivo, Xanthium strumarium; conditions: for pest or weed control at 500 g/ha: 500 g ai/ha
# Procedure, shortened: as §1
# [4] = test system: large crabgrass; assay: Test B pre-/postemergence herbicide test; type: in vivo, Digitaria sanguinalis; conditions: for pest or weed control at 500 g/ha: 500 g ai/ha
# Procedure, shortened: as §2
# [5] = test system: giant foxtail; assay: Test B pre-/postemergence herbicide test; type: in vivo, Setaria faberi; conditions: for pest or weed control at 500 g/ha: 500 g ai/ha
# Procedure, shortened: as §2
# [6] = test system: lambsquarters; assay: Test B pre-/postemergence herbicide test; type: in vivo, Chenopodium album; conditions: for pest or weed control at 500 g/ha: 500 g ai/ha
# Procedure, shortened: as §2
# [7] = test system: morningglory; assay: Test B pre-/postemergence herbicide test; type: in vivo, Ipomoea coccinea; conditions: for pest or weed control at 500 g/ha: 500 g ai/ha
# Procedure, shortened: as §1
# [8] = test system: pigweed; assay: Test B pre-/postemergence herbicide test; type: in vivo, Amaranthus retroflexus; conditions: for pest or weed control at 500 g/ha: 500 g ai/ha
# Procedure, shortened: as §2
# [9] = test system: velvetleaf; assay: Test B pre-/postemergence herbicide test; type: in vivo, Abutilon theophrasti
# Procedure, shortened: as §2
# [10] = test system: wheat; assay: Test B postemergence herbicide test; type: in vivo, Triticum aestivum; conditions: Triticum aestivum, post-emergence, 336 h, read-out: Wheat plant response rating
# Procedure, shortened: (§3)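 Scale 0–100: zero equals no visible effect, 100 complete control, judged by eye relative to controls. Timing: 13 to 15 days in greenhouse post-treatment. Growth stage at spraying: two leaves (paddy) or one to four leaves, 2–18 cm (postemergence).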
# [11] = test system: wild oat; assay: Test B postemergence herbicide test; type: in vivo, Avena fatua; conditions: Avena fatua, post-emergence, 336 h, read-out: Oat, Wild plant response rating
# Procedure, shortened: as §3
# [12] = test system: rice; assay: Test B flooded paddy test; type: in vivo, Oryza sativa; conditions: Oryza sativa, 336 h, 1000 g ai/ha, scale 0 to 100 (0 no effect, 100 complete control), read-out: Rice plant response rating
# Procedure, shortened: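 Paddy species grown to the 2-leaf stage under flooding; blackgrass sprayed postemergence at 2–18 cm (1- to 4-leaf stage). Plants kept in a greenhouse for 13 to 15 days, then visually rated against controls on 0 (no effect) to 100 (complete control).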
# [13] = test system: small flower umbrella sedge; assay: Test B flooded paddy test; type: in vivo, Cyperus difformis; conditions: Cyperus difformis, 336 h, 1000 g ai/ha, scale 0 to 100 (0 no effect, 100 complete control), read-out: Sedge, Umbrella plant response rating
# Procedure, shortened: (§4)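 Each value is a visual 0–100 response rating taken against controls 13 to 15 days after treatment in the greenhouse. Plants received formulated chemical postemergence at the 1- to 4-leaf stage or, in flooded paddy, at the 2-leaf stage.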
# [14] = test system: ducksalad; assay: Test B flooded paddy test; type: in vivo, Heteranthera limosa; conditions: Heteranthera limosa, 336 h, 1000 g ai/ha, scale 0 to 100 (0 no effect, 100 complete control), read-out: Ducksalad plant response rating
# Procedure, shortened: as §4
# [15] = test system: barnyardgrass; assay: Test B flooded paddy test; type: in vivo, Echinochloa crus-galli; conditions: Echinochloa crus-galli, 336 h, 1000 g ai/ha, scale 0 to 100 (0 no effect, 100 complete control), read-out: Barnyardgrass plant response rating
# Procedure, shortened: as §4
# [16] = 125 g ai/ha, 0 is no effect, 100 is complete control, preemergence
# [17] = 125 g ai/ha, visual rating, scale 0 (no effect) to 100 (complete control)
# [18] = postemergence, 500 g ai/ha, scale 0 to 100, 0 is no effect, 100 is complete control
smiles,measurement,setting,value
"CCNC(=O)c1ccc(F)c(NC(=O)C2CN(C(C)(C)C)N=C2CC)c1 (stereo not shown) [Compound 336, 1-(1,1-dimethylethyl)-3-ethyl-N-[5-[(ethylamino)carbonyl]-2-fluorophenyl]-4,5-dihydro-1H-pyrazole-4-carboxamide]","Plant response rating (0 to 100 scale), Barnyardgrass",[1]; [16],100
same,pest or weed control at 125 g/ha,"[1]; Echinochloa crus-galli, post-emergence, 125 g ai/ha, visual rating, scale 0 (no effect) to 100 (complete control), read-out: Barnyardgrass plant response rating",10%
same,pest or weed control at 500 g/ha,"[1]; Echinochloa crus-galli, post-emergence, postemergence, scale 0 to 100, 0 is no effect, 100 is complete control, read-out: Barnyardgrass plant response rating",30%
same,pest or weed control at 500 g/ha,"[1]; Echinochloa crus-galli, pre-emergence, visual rating, 0 = no effect, 100 = complete control, read-out: Plant response rating, Barnyardgrass",100%
same,"Plant response rating (0 to 100 scale), Surinam Grass",[2]; [16],90
same,pest or weed control at 125 g/ha,"[2]; Urochloa decumbens, post-emergence, 125 g ai/ha, visual rating, scale 0 (no effect) to 100 (complete control), read-out: Surinam Grass plant response rating",20%
same,pest or weed control at 500 g/ha,"[2]; Urochloa decumbens, post-emergence, postemergence, scale 0 to 100, 0 is no effect, 100 is complete control, read-out: Surinam Grass plant response rating",20%
same,pest or weed control at 500 g/ha,"[2]; Urochloa decumbens, pre-emergence, visual rating, 0 = no effect, 100 = complete control, read-out: Plant response rating, Surinam Grass",100%
same,"Plant response rating (0 to 100 scale), Cocklebur",[3]; [16],10
same,pest or weed control at 125 g/ha,"[3]; Xanthium strumarium, post-emergence, 125 g ai/ha, visual rating, scale 0 (no effect) to 100 (complete control), read-out: Cocklebur plant response rating",0%
same,pest or weed control at 500 g/ha,"[3]; Xanthium strumarium, post-emergence, postemergence, scale 0 to 100, 0 is no effect, 100 is complete control, read-out: Cocklebur plant response rating",50%
same,pest or weed control at 500 g/ha,"[3]; Xanthium strumarium, pre-emergence, visual rating, 0 = no effect, 100 = complete control, read-out: Plant response rating, Cocklebur",40%
same,"Plant response rating (0 to 100 scale), Crabgrass, Large",[4]; [16],90
same,pest or weed control at 125 g/ha,"[4]; Digitaria sanguinalis, post-emergence, 125 g ai/ha, visual rating, scale 0 (no effect) to 100 (complete control), read-out: Crabgrass, Large plant response rating",20%
same,pest or weed control at 500 g/ha,"[4]; Digitaria sanguinalis, post-emergence, postemergence, scale 0 to 100, 0 is no effect, 100 is complete control, read-out: Crabgrass, Large plant response rating",50%
same,pest or weed control at 500 g/ha,"[4]; Digitaria sanguinalis, pre-emergence, visual rating, 0 = no effect, 100 = complete control, read-out: Plant response rating, Crabgrass, Large",100%
same,"Plant response rating (0 to 100 scale), Foxtail, Giant",[5]; [16],60
same,pest or weed control at 125 g/ha,"[5]; Setaria faberi, post-emergence, 336 h, 125 g ai/ha, visual rating, scale 0 (no effect) to 100 (complete control), read-out: Foxtail, Giant plant response rating",20%
same,pest or weed control at 500 g/ha,"[5]; Setaria faberi, post-emergence, 336 h, postemergence, scale 0 to 100, 0 is no effect, 100 is complete control, read-out: Foxtail, Giant plant response rating",40%
same,pest or weed control at 500 g/ha,"[5]; Setaria faberi, pre-emergence, 336 h, visual rating, 0 = no effect, 100 = complete control, read-out: Plant response rating, Foxtail, Giant",100%
same,"Plant response rating (0 to 100 scale), Lambsquarters",[6]; [16],90
same,pest or weed control at 125 g/ha,"[6]; Chenopodium album, post-emergence, 336 h, 125 g ai/ha, visual rating, scale 0 (no effect) to 100 (complete control), read-out: Lambsquarters plant response rating",60%
same,pest or weed control at 500 g/ha,"[6]; Chenopodium album, post-emergence, 336 h, postemergence, scale 0 to 100, 0 is no effect, 100 is complete control, read-out: Lambsquarters plant response rating",90%
same,pest or weed control at 500 g/ha,"[6]; Chenopodium album, pre-emergence, 336 h, visual rating, 0 = no effect, 100 = complete control, read-out: Plant response rating, Lambsquarters",100%
same,"Plant response rating (0 to 100 scale), Morningglory",[7]; [16],20
same,pest or weed control at 125 g/ha,"[7]; Ipomoea, post-emergence, 336 h, 125 g ai/ha, visual rating, scale 0 (no effect) to 100 (complete control), read-out: Morningglory plant response rating",40%
same,pest or weed control at 500 g/ha,"[7]; Ipomoea, post-emergence, 336 h, postemergence, scale 0 to 100, 0 is no effect, 100 is complete control, read-out: Morningglory plant response rating",70%
same,pest or weed control at 500 g/ha,"[7]; Ipomoea, pre-emergence, 336 h, visual rating, 0 = no effect, 100 = complete control, read-out: Plant response rating, Morningglory",70%
same,"Plant response rating (0 to 100 scale), Pigweed",[8]; [16],100
same,pest or weed control at 125 g/ha,"[8]; Amaranthus retroflexus, post-emergence, 336 h, 125 g ai/ha, visual rating, scale 0 (no effect) to 100 (complete control), read-out: Pigweed plant response rating",60%
same,pest or weed control at 500 g/ha,"[8]; Amaranthus retroflexus, post-emergence, 336 h, postemergence, scale 0 to 100, 0 is no effect, 100 is complete control, read-out: Pigweed plant response rating",70%
same,pest or weed control at 500 g/ha,"[8]; Amaranthus retroflexus, pre-emergence, 336 h, visual rating, 0 = no effect, 100 = complete control, read-out: Plant response rating, Pigweed",100%
same,"Plant response rating (0 to 100 scale), Velvetleaf",[9]; [16],30
same,pest or weed control at 125 g/ha,"[9]; Abutilon theophrasti, post-emergence, 336 h, 125 g ai/ha, visual rating, scale 0 (no effect) to 100 (complete control), read-out: Velvetleaf plant response rating",20%
same,pest or weed control at 500 g/ha,"[9]; Abutilon theophrasti, post-emergence, 336 h, postemergence, 500 g ai/ha, scale 0 to 100, 0 is no effect, 100 is complete control, read-out: Velvetleaf plant response rating",30%
same,plant injury at 125 g/ha,[10]; [17],0%
same,plant injury at 500 g/ha,[10]; [18],10%
same,pest or weed control at 125 g/ha,[11]; [17],10%
same,pest or weed control at 500 g/ha,[11]; [18],20%
same,plant injury at 1000 g/ha,[12],80%
same,pest or weed control at 1000 g/ha,[13],80%
same,pest or weed control at 1000 g/ha,[14],90%
same,pest or weed control at 1000 g/ha,[15],90%
